Patent US20130303509A1, “NAMPT INHIBITORS” (AbbVie Inc., priority 2012, published 2013)
One block for each compound: values may come before it.

Test system: PC3 cells
Experiment: NAMPT Cell Proliferation Assay
Format: cell-based
Conditions: Homo sapiens, PC-3, 120 h, 5 days incubation, cell viability by Cell Titer Glo
In short: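 Seeded at 500 cells/well in RPMI with 10% heat-inactivated FBS and left to attach overnight at 37° C, 5% CO2. Compounds were added as 10-fold dilutions […] for 5 days, then viability was read by CellTiter-Glo. IC50s came from sigmoidal fits of percent inhibition.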

Compound: O=C(Nc1ccc(O[C@@H]2CCN(C(=O)C3CCC(F)(F)CC3)C2)cc1)C1CN(c2ccnnc2)C1 [Example 482, N-[4-({(3R)-1-[(4,4-difluorocyclohexyl)carbonyl]pyrrolidin-3-yl}oxy)phenyl]-1-(pyridazin-4-yl)azetidine-3-carboxamide]
IC50: 32.6 nM

Compound: O=C(Nc1ccc(O[C@@H]2CCN(C(=O)c3ccccc3Cl)C2)cc1)C1CN(c2cccnn2)C1 [Example 483, N-(4-{[(3R)-1-(2-chlorobenzoyl)pyrrolidin-3-yl]oxy}phenyl)-1-(pyridazin-3-yl)azetidine-3-carboxamide]
IC50: 2.14 nM

Compound: O=C(Nc1ccc(O[C@@H]2CCN(C(=O)c3nccs3)C2)cc1)C1CN(c2cccnn2)C1 [Example 484, 1-(pyridazin-3-yl)-N-(4-{[(3R)-1-(1,3-thiazol-2-ylcarbonyl)pyrrolidin-3-yl]oxy}phenyl)azetidine-3-carboxamide]
IC50: 0.56 nM

Compound: O=C(Nc1ccc(O[C@@H]2CCN(C(=O)CC3CC3)C2)cc1)C1CN(c2cccnn2)C1 [Example 485, N-(4-{[(3R)-1-(cyclopropylacetyl)pyrrolidin-3-yl]oxy}phenyl)-1-(pyridazin-3-yl)azetidine-3-carboxamide]
IC50: 6.35 nM

Compound: CC[C@H](C)C(=O)N1CC[C@@H](Oc2ccc(NC(=O)C3CN(c4cccnn4)C3)cc2)C1 [Example 486, N-[4-({(3R)-1-[(2S)-2-methylbutanoyl]pyrrolidin-3-yl}oxy)phenyl]-1-(pyridazin-3-yl)azetidine-3-carboxamide]
IC50: 6.24 nM

Compound: O=C(Nc1ccc(O[C@@H]2CCN(C(=O)C3CCOCC3)C2)cc1)C1CN(c2cccnn2)C1 [Example 487, 1-(pyridazin-3-yl)-N-(4-{[(3R)-1-(tetrahydro-2H-pyran-4-ylcarbonyl)pyrrolidin-3-yl]oxy}phenyl)azetidine-3-carboxamide]
IC50: 72 nM

Compound: O=C(Nc1ccc(O[C@@H]2CCN(C(=O)Cc3ccc(OC(F)(F)F)cc3)C2)cc1)C1CN(c2cccnn2)C1 [Example 488, 1-(pyridazin-3-yl)-N-(4-{[(3R)-1-{[4-(trifluoromethoxy)phenyl]acetyl}pyrrolidin-3-yl]oxy}phenyl)azetidine-3-carboxamide]
IC50: 64.2 nM

Compound: O=C(Nc1ccc(O[C@@H]2CCN(C(=O)c3ccc(F)cc3)C2)cc1)C1CN(c2cccnn2)C1 [Example 489, N-(4-{[(3R)-1-(4-fluorobenzoyl)pyrrolidin-3-yl]oxy}phenyl)-1-(pyridazin-3-yl)azetidine-3-carboxamide]
IC50: 2.07 nM

Compound: O=C(Nc1ccc(O[C@@H]2CCN(C(=O)c3ccsc3)C2)cc1)C1CN(c2cccnn2)C1 [Example 490, 1-(pyridazin-3-yl)-N-(4-{[(3R)-1-(thiophen-3-ylcarbonyl)pyrrolidin-3-yl]oxy}phenyl)azetidine-3-carboxamide]
IC50: 0.68 nM

Compound: O=C(Nc1ccc(O[C@@H]2CCN(C(=O)Cc3ccc(F)cc3)C2)cc1)C1CN(c2cccnn2)C1 [Example 491, N-[4-({(3R)-1-[(4-fluorophenyl)acetyl]pyrrolidin-3-yl}oxy)phenyl]-1-(pyridazin-3-yl)azetidine-3-carboxamide]
IC50: 8.45 nM

Compound: O=C(Nc1ccc(O[C@@H]2CCN(C(=O)Cc3cc(F)cc(F)c3)C2)cc1)C1CN(c2cccnn2)C1 [Example 492, N-[4-({(3R)-1-[(3,5-difluorophenyl)acetyl]pyrrolidin-3-yl}oxy)phenyl]-1-(pyridazin-3-yl)azetidine-3-carboxamide]
IC50: 3.73 nM

Compound: O=C(Nc1ccc(O[C@@H]2CCN(C(=O)c3ccc(F)c(F)c3)C2)cc1)C1CN(c2cccnn2)C1 [Example 493, N-(4-{[(3R)-1-(3,4-difluorobenzoyl)pyrrolidin-3-yl]oxy}phenyl)-1-(pyridazin-3-yl)azetidine-3-carboxamide]
IC50: 6.73 nM

Compound: O=C(Nc1ccc(O[C@@H]2CCN(C(=O)Cc3cccc(F)c3)C2)cc1)C1CN(c2cccnn2)C1 [Example 494, N-[4-({(3R)-1-[(3-fluorophenyl)acetyl]pyrrolidin-3-yl}oxy)phenyl]-1-(pyridazin-3-yl)azetidine-3-carboxamide]
IC50: 1.05 nM

Compound: O=C(Nc1ccc(O[C@@H]2CCN(C(=O)c3cccc(C(F)(F)F)c3)C2)cc1)C1CN(c2cccnn2)C1 [Example 495, 1-(pyridazin-3-yl)-N-[4-({(3R)-1-[3-(trifluoromethyl)benzoyl]pyrrolidin-3-yl}oxy)phenyl]azetidine-3-carboxamide]
IC50: 7.06 nM

Compound: O=C(Nc1ccc(O[C@@H]2CCN(C(=O)Cc3ccc(F)cc3F)C2)cc1)C1CN(c2cccnn2)C1 [Example 496, N-[4-({(3R)-1-[(2,4-difluorophenyl)acetyl]pyrrolidin-3-yl}oxy)phenyl]-1-(pyridazin-3-yl)azetidine-3-carboxamide]
IC50: 6.3 nM

Compound: O=C(Nc1ccc(O[C@@H]2CCN(C(=O)Cc3ccc(C(F)(F)F)cc3)C2)cc1)C1CN(c2cccnn2)C1 [Example 497, 1-(pyridazin-3-yl)-N-(4-{[(3R)-1-{[4-(trifluoromethyl)phenyl]acetyl}pyrrolidin-3-yl]oxy}phenyl)azetidine-3-carboxamide]
IC50: 23.4 nM

Compound: O=C(Nc1ccc(O[C@@H]2CCN(C(=O)c3cscn3)C2)cc1)C1CN(c2cccnn2)C1 [Example 498, 1-(pyridazin-3-yl)-N-(4-{[(3R)-1-(1,3-thiazol-4-ylcarbonyl)pyrrolidin-3-yl]oxy}phenyl)azetidine-3-carboxamide]
IC50: 6.64 nM

Compound: O=C(Nc1ccc(O[C@@H]2CCN(C(=O)C3CCCO3)C2)cc1)C1CN(c2cccnn2)C1 (stereo partly drawn) [Example 499, 1-(pyridazin-3-yl)-N-(4-{[(3R)-1-(tetrahydrofuran-2-ylcarbonyl)pyrrolidin-3-yl]oxy}phenyl)azetidine-3-carboxamide]
IC50: 12.1 nM

Compound: Cc1ccc(C(=O)N2CC[C@@H](Oc3ccc(NC(=O)C4CN(c5cccnn5)C4)cc3)C2)s1 [Example 500, N-[4-({(3R)-1-[(5-methylthiophen-2-yl)carbonyl]pyrrolidin-3-yl}oxy)phenyl]-1-(pyridazin-3-yl)azetidine-3-carboxamide]
IC50: 1.02 nM

Compound: O=C(Nc1ccc(O[C@@H]2CCN(C(=O)Cc3ccccc3F)C2)cc1)C1CN(c2cccnn2)C1 [Example 501, N-[4-({(3R)-1-[(2-fluorophenyl)acetyl]pyrrolidin-3-yl}oxy)phenyl]-1-(pyridazin-3-yl)azetidine-3-carboxamide]
IC50: 6.07 nM

Compound: O=C(Nc1ccc(O[C@@H]2CCN(C(=O)C3CC3)C2)cc1)C1CN(c2cccnn2)C1 [Example 502, N-(4-{[(3R)-1-(cyclopropylcarbonyl)pyrrolidin-3-yl]oxy}phenyl)-1-(pyridazin-3-yl)azetidine-3-carboxamide]
IC50: 4.74 nM

Results, then the compound that gave them:

IC50: 58.2 nM
Compound: O=C(Nc1ccc(O[C@@H]2CCN(C(=O)C3CCOC3)C2)cc1)C1CN(c2cccnn2)C1 (stereo partly drawn) [Example 503, 1-(pyridazin-3-yl)-N-(4-{[(3R)-1-(tetrahydrofuran-3-ylcarbonyl)pyrrolidin-3-yl]oxy}phenyl)azetidine-3-carboxamide]

IC50: 7.75 nM
Compound: O=C(Nc1ccc(O[C@@H]2CCN(C(=O)c3cccc(OC(F)(F)F)c3)C2)cc1)C1CN(c2cccnn2)C1 [Example 504, 1-(pyridazin-3-yl)-N-[4-({(3R)-1-[3-(trifluoromethoxy)benzoyl]pyrrolidin-3-yl}oxy)phenyl]azetidine-3-carboxamide]

IC50: 6.84 nM
Compound: O=C(Nc1ccc(O[C@@H]2CCN(C(=O)c3ccccn3)C2)cc1)C1CN(c2cccnn2)C1 [Example 505, 1-(pyridazin-3-yl)-N-(4-{[(3R)-1-(pyridin-2-ylcarbonyl)pyrrolidin-3-yl]oxy}phenyl)azetidine-3-carboxamide]

IC50: 1.28 nM
Compound: O=C(Nc1ccc(O[C@@H]2CCN(C(=O)c3cccc(Cl)c3)C2)cc1)C1CN(c2cccnn2)C1 [Example 506, N-(4-{[(3R)-1-(3-chlorobenzoyl)pyrrolidin-3-yl]oxy}phenyl)-1-(pyridazin-3-yl)azetidine-3-carboxamide]

IC50: 8.34 nM
Compound: O=C(Nc1ccc(O[C@@H]2CCN(C(=O)c3ccc(Cl)cc3)C2)cc1)C1CN(c2cccnn2)C1 [Example 507, N-(4-{[(3R)-1-(4-chlorobenzoyl)pyrrolidin-3-yl]oxy}phenyl)-1-(pyridazin-3-yl)azetidine-3-carboxamide]

IC50: 0.79 nM
Compound: CC(C)(C(=O)N1CC[C@@H](Oc2ccc(NC(=O)C3CN(c4cccnn4)C3)cc2)C1)c1ccccc1 [Example 508, N-(4-{[(3R)-1-(2-methyl-2-phenylpropanoyl)pyrrolidin-3-yl]oxy}phenyl)-1-(pyridazin-3-yl)azetidine-3-carboxamide]

IC50: 1.19 nM
Compound: O=C(Nc1ccc(O[C@@H]2CCN(C(=O)c3ccc(F)cc3F)C2)cc1)C1CN(c2cccnn2)C1 [Example 509, N-(4-{[(3R)-1-(2,4-difluorobenzoyl)pyrrolidin-3-yl]oxy}phenyl)-1-(pyridazin-3-yl)azetidine-3-carboxamide]

IC50: 66.4 nM
Compound: COCC(=O)N1CC[C@@H](Oc2ccc(NC(=O)C3CN(c4cccnn4)C3)cc2)C1 [Example 510, N-(4-{[(3R)-1-(methoxyacetyl)pyrrolidin-3-yl]oxy}phenyl)-1-(pyridazin-3-yl)azetidine-3-carboxamide]

IC50: 0.82 nM
Compound: O=C(Nc1ccc(O[C@@H]2CCN(C(=O)c3cccs3)C2)cc1)C1CN(c2cccnn2)C1 [Example 511, 1-(pyridazin-3-yl)-N-(4-{[(3R)-1-(thiophen-2-ylcarbonyl)pyrrolidin-3-yl]oxy}phenyl)azetidine-3-carboxamide]

IC50: 15.5 nM
Compound: O=C(Nc1ccc(O[C@@H]2CCN(C(=O)Cc3cccc(C(F)(F)F)c3)C2)cc1)C1CN(c2cccnn2)C1 [Example 512, 1-(pyridazin-3-yl)-N-(4-{[(3R)-1-{[3-(trifluoromethyl)phenyl]acetyl}pyrrolidin-3-yl]oxy}phenyl)azetidine-3-carboxamide]

IC50: 3.5 nM
Compound: CC(C)C(=O)N1CC[C@@H](Oc2ccc(NC(=O)C3CN(c4cccnn4)C3)cc2)C1 [Example 513, N-(4-{[(3R)-1-(2-methylpropanoyl)pyrrolidin-3-yl]oxy}phenyl)-1-(pyridazin-3-yl)azetidine-3-carboxamide]

IC50: 0.32 nM
Compound: O=C(Nc1ccc(O[C@@H]2CCN(C(=O)c3ccccc3F)C2)cc1)C1CN(c2cccnn2)C1 [Example 514, N-(4-{[(3R)-1-(2-fluorobenzoyl)pyrrolidin-3-yl]oxy}phenyl)-1-(pyridazin-3-yl)azetidine-3-carboxamide]
